Series [1] is described as follows: Stability (physicochemical properties, Table 1). The note with it: for Stability (photostability): light.
Series [2] in a line: Solubility (physicochemical properties, Table 1). Particulars: room temperature, atmospheric pressure.
The target of series [3] is T1, EGFR (Epidermal Growth Factor Receptor) (Homo sapiens, UniProt P00533).
T1 construct: purchased CST
Kind of series: Enzyme-linked immunosorbent assay (ELISA), kinase inhibitory activity (phosphorylation of PTP1B(Tyr66) biotinylated peptide substrate). The series is classed as biochemical. Particulars: average of two independent parallel experiments. From the text:
Protein kinase assay kit: PTP1B(Tyr66) Biotinylated Peptide from CST company is used as a substrate of kinase EGFR (Epidermal Growth Factor Receptor).

Series [4] relates to human breast cancer cell line (sensitive) MCF-7/S + EGF. The experiment in a line: Cytotoxicity experiment under the condition of additional EGF, SRB method. The format is cell-based. The note with it: MCF-7/S with additional EGF 100 ng/ml, 48 h, SRB; read-out: IC50 (umol/L) Breast cancer cell (sensitive) MCF-7/S + EGF. On the procedure: Human breast cancer cell line (sensitive) MCF-7/S and human non-small cell lung cancer cell line A549 are cultured in HAM′S/F-12 medium (HyClone, USA) containing 10 wt % fetal bovine serum (FBS, Hyclone, USA), and 100 ng/ml epidermal growth factor (EGF, Sigma, USA) is added to this medium. Cells described above were purchased from Cell Resource Center, Shanghai Institute for Biological Science, CAS, they are placed in a CO2 incubator and used for the experiment 3-5 days later.
(§1) Wherein, for experiment on compound cytotoxicity assay by sulforhodamine B (SRB) method: Cells in the logarithmic growth phase are collected and inoculated at 96-well plates (6500 cells/well/100 ul, RPMI1640 containing 100 ng/ml of EGF). After incubation for 24 h, compounds at gradient concentrations (200, 100, 50, 25, 12.5, 6.25, 1 (μM/L)) are added. The same volume of RPMI1640 containing 100 ng/ml of EGF is used as control group of the experiment; the blank group is only culture medium without cell. Three parallel wells are set up for each concentration group. After incubation is continued for 48 h, the cell survival rate is measured by SRB method. 50 μl 10% trichloroacetic acid (TCA) pre-cooled (4° C.) is added to each well, it is fixed for 1 hour at 4° C., washed with water for five times, and completely dried, and then 100 μl of SRB solution (Sigma, USA) at concentration of 0.4% by weight is added, and staining is performed at 37° C. in the dark for 30 min. Wash with acetic acid at a concentration of 1% by weight for 4-5 times, dry in the air, add 200 μl of Tris solution (10 mM, pH 10.5), after sufficiently dissolved, the absorbance (absorption wavelength is 570 nm) is measured in microplate reader.
(§2) The growth inhibition rate (IR) is calculated according to the following formula: IR (%)=[1−(experiment group A value−blank group A value)/(control group A value−blank group A value)]×100%, and the IC50 value is calculated using Origin 6.0 software.

Series [5] deals with human breast cancer cell line (sensitive) MCF-7/S. The experiment in a line: Cytotoxicity experiment, SRB method, tumor cell proliferation. The series is classed as cell-based. The note with it: 48 h, read-out: IC50 (umol/L) Breast cancer cell (sensitive) MCF-7/S. The protocol: (§3) Human breast cancer cell line (drug-resistant) MCF-7/A, human breast cancer cell line (sensitive) MCF-7/S, prostate cancer cell PC-3, keratinocyte Colo-16, human non-small cell lung cancer cell line A549 and etc. are cultured in RPMI1640 medium (Invitrogen, USA) containing 10 wt % fetal bovine serum (FBS, Hyclone, USA), and epidermal growth factor (EGF) at a concentration of 100 ng/ml is added to stimulate growth. After 2-3 days, cells in logarithmic growth phase are collected, and inoculated at 96 well plates (6500 cells/well/100 ul, RPMI1640 containing 100 ng/mL EGF) for 24 h, and then compound at gradient concentrations (200, 100, 50, 25, 12.5, 6.25, 1 μM/L) are added. The same volume of RPMI1640 containing 1 wt % of dimethyl sulfoxide (DMSO) is used as control group of the experiment; the blank group is only culture medium without cell. Three parallel wells are set up for each concentration group. After incubation is continued for 48 h, the cell survival rate is measured by SRB method. Results are shown in Table 2 and Table 3, respectively.
as §1, §2
(In general: The SRB assay estimates cell density from bound dye.)

The subject of series [6] is prostate cancer cell PC-3. The description is as above. The series is classed as cell-based. The note with it: PC-3, 48 h, SRB; read-out: IC50 (μmol/L) Prostate cancer cell PC-3. On the procedure:
as §3, §1, §2

In series [7] the test system is Human breast cancer cell line (drug-resistant) MCF-7/A. The description is as above. Particulars: 48 h, read-out: IC50 (umol/L) Breast cancer cell (drug-resistant) MCF-7/A. The series is classed as cell-based. On the procedure:
as §3, §1, §2

In another series the test system is keratinocyte Colo-16. The series is described as above. The series is classed as cell-based. Particulars: Colo-16, 48 h, SRB; read-out: IC50 (μmol/L) Keratinocyte Colo-16. The protocol: as §3, §1, §2
Series [8] has as its system human non-small cell lung cancer cell line A549. The series is described as above. The series is classed as cell-based. The note with it: A549, 48 h, read-out: IC50 (μmol/L) Non-small cell lung cancer cell A549. The protocol:
as §3, §1, §2

T1 sequence (P00533 25-1210): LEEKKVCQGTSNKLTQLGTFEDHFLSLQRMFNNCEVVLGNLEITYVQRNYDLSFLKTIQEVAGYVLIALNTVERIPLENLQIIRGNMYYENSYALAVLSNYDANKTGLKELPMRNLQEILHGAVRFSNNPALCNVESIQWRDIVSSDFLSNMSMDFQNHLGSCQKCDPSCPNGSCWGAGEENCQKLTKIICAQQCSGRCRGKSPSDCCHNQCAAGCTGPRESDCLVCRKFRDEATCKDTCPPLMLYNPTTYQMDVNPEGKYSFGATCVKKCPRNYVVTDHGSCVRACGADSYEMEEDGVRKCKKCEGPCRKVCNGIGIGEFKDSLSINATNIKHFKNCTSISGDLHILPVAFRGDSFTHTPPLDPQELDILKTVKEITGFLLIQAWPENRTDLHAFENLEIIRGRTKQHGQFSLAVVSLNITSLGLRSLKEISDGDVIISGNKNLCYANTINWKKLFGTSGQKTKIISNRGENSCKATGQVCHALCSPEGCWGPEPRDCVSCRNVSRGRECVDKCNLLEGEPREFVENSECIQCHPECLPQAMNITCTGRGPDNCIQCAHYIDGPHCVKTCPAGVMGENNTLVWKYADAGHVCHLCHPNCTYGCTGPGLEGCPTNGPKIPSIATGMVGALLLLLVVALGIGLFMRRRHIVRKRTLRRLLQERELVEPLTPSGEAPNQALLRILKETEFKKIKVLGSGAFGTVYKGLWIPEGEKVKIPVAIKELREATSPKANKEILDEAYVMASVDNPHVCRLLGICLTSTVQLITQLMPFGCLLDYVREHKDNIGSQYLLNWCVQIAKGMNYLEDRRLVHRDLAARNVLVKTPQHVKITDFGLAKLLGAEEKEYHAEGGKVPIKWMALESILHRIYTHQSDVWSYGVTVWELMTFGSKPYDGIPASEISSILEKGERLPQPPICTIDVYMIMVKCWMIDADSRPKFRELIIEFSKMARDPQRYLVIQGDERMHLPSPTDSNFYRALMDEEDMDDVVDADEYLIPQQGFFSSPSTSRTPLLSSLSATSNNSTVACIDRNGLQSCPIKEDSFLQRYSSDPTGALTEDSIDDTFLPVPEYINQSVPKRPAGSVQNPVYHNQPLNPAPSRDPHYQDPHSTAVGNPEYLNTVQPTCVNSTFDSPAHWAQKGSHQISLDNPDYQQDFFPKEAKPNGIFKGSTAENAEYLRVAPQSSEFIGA

Consider `COc1cc2ncnc(Nc3ccc(F)c(Cl)c3)c2cc1OCC[N]1CC[NH][Ru+]1([Cl])[c]1cc(C(C)C)ccc1C.F[P-](F)(F)(F)(F)F` (stereo not drawn) [ZW2001], for which the “Stability (in air)” value in [1] was “Stable in air,”. In addition, in series [1], the “Stability (photostability)” value is recorded as “photostable”. In addition, the “Solubility in DMSO” value in series [2] is reported as “Highly soluble in DMSO”. Besides, in series [2], the “Solubility in methanol and ethanol” value is “soluble in water, soluble in methanol”. The Solubility in water result in [2] is recorded as “slightly”. For the same compound, the IC50 was 0.081 µM in series [3]; 56.1 ± 2.66 µmol/L in series [4]; above 100 µmol/L in series [5]; above 100 µmol/L in series [6]; above 100 µmol/L in [7]; 42.8 ± 2.46 µmol/L in the series on keratinocyte Colo-16. Moreover, the IC50 in [8] is above 100 µmol/L.
Take `COc1cc2ncnc(Nc3ccc(F)c(Cl)c3)c2cc1OCC[N]1CC[NH][Ru+]1([Cl])[c]1cccc(-c2ccccc2)c1.F[P-](F)(F)(F)(F)F` (stereo not drawn) [ZW2003]: the “Stability (in air)” value in series [1] is on record as “Stable in air,”. Further, the “Stability (photostability)” value in series [1] was “photostable”. Further, in [2], the “Solubility in DMSO” value was “Highly soluble in DMSO”. The “Solubility in methanol and ethanol” value in series [2] is recorded as “soluble in water, soluble in methanol”. Moreover, in [2], the Solubility in water entry is “slightly”. Besides, the IC50 in series [3] is 0.126 µM; in series [4], 28.7 ± 8.75 µmol/L; in [5], 79.1 ± 11.6 µmol/L; in series [6], 81.3 ± 6.94 µmol/L; in series [7] it was above 100 µmol/L; in the series on keratinocyte Colo-16 it was 54.2 ± 4.98 µmol/L. The IC50 in [8] is above 100 µmol/L.
Regarding `COc1cc2ncnc(Nc3ccc(F)c(Cl)c3)c2cc1OCCC[N]1CC[NH][Ru+]1([Cl])[c]1cccc(-c2ccccc2)c1.F[P-](F)(F)(F)(F)F` (stereo not drawn) [ZW2006], the “Stability (in air)” value in [1] was “Stable in air,”. In series [1], the “Stability (photostability)” value is on record as “photostable”. Moreover, the “Solubility in DMSO” value in series [2] is “Highly soluble in DMSO”. In series [2], the “Solubility in methanol and ethanol” value is reported as “soluble in water, soluble in methanol”. Moreover, the Solubility in water entry in [2] is “slightly”. The IC50 in series [3] is 0.0762 µM; in series [4] it was 21.7 ± 7.44 µmol/L; in series [5] it was 48.8 ± 7.82 µmol/L; in series [6] it was 43.8 ± 3.9 µmol/L; in series [7] it was above 100 µmol/L; with keratinocyte Colo-16 it was 55.8 ± 1.55 µmol/L. The IC50 in series [8] is above 100 µmol/L.

For the origin of these results see patent US9233995B2, “Quinazoline derivatives and quinazoline complex protein kinase inhibitor for inhibiting multiplication of tumor cells and preparation method thereof” (INSTITUTE OF CHEMISTRY, CHINESE ACADEMY OF SCIENCES, priority 2010, dated 2016).
